Molecules are shown by their SMILES.

The subject of assay [1] is DLD-1 BRCA2 (−/−) cells. The assay is described as follows: Inhibition of tumour cell proliferation, 7 days, CTG. In kind it is cell-based. The note with it: Homo sapiens, 168 h; DLD-1 BRCA2 (−/−) cells, 7 days of incubation, CTG; read-out: DLD-1 BRCA2 (−/−) IC50. How it is done: (§1) Brief introduction to the experimental principle: The compounds were co-incubated with tumour cells for 7 days, and then a CTG kit from Promega Inc was used to quantify ATP in viable cells, thus reflecting the effect of the compounds on tumour cell proliferation.
(§2) Experimental method: DLD-1 parental cells or DLD-1 BRCA2 (−/−) cells were diluted with RPMI 1640 medium containing 10% FBS, and then added to a 96-well plate (90 μL/well), with the number of cells being 600 cells/well or 1200 cells/well, respectively, and cultured overnight in a 37° C., 5% CO2 incubator. The compounds to be tested were diluted to different concentrations in dimethyl sulfoxide (DMSO), and then added to a 96-well plate. The final concentration of the compounds in the reaction system started from 25 μM, and was subjected to 4-fold gradient dilution. The concentration range of the compounds was from 25 μM to 0.0004 μM, and the final concentration of DMSO was 0.25% v/v. After 7 days of incubation, 50 μL/well CTG was added, and the mixture was incubated at room temperature for 10 minutes. Subsequently, the luminescence (Lum) signal value was read with an Envision microplate reader, and the inhibition rate and half inhibitory concentration (IC50) were calculated.
(§3) The inhibition rate was calculated, and XLfit software was used to perform fitting to obtain IC50 of the compounds.
(§4) In the experiment, a blank well and a DMSO well were set up, respectively.
(§5) Inhibition rate=100*(Lummax−Lumcompound)/(Lummax−Lummin)%, • where Lummax refers to the luminescence signal value of the well containing cells and 0.25% v/v DMSO; Lumcompound refers to the luminescence signal value of the well containing the compound and cells; and Lummin refers to the luminescence signal value of the well containing the medium and 0.25% v/v DMSO.

For assay [2], the system named is DLD-1 parental cells. Described as above. The assay is classed as cell-based. The note with it: Homo sapiens, 168 h; DLD-1 parental cells, 7 days of incubation, CTG; read-out: DLD-1 parental cell IC50. The protocol:
as §1, §2, §3, §4, §5

Assay [3] addresses N-terminal active peptide segment (MI-N899) of POLQ with ATPase activity (Homo sapiens (Human), UniProt O75417). In words: POLQ enzyme activity inhibition experiment (ATPase, NADH-coupled, OD 340 nm). In kind it is biochemical. To be noted: 100 nM POLQ (N), 100 μM ATP, 300 nM dT50. How it is done:
The Envision microplate reader from Perkin Elmer Inc was used to measure the reduction of OD value of NADH at 340 nm, thus reflecting the enzyme activity. Experimental method: The POLQ enzyme was diluted to 100 nM with a reaction buffer (20 mM Tris HCl (pH 7.80), 80 mM KCl, 10 mM MgCl2, 1 mM DTT, 0.01% w/v bovine serum albumin, 0.01% v/v Tween-20, and 5% v/v glycerol). The compounds to be tested were diluted to different concentrations in dimethyl sulfoxide (DMSO) using the Echo 650 pipetting system, and transferred to a 384-well plate, 20 μL/well of 100 nM POLQ was added, and the mixture was incubated at room temperature for 15 minutes. A reaction mixture solution was formulated, and the concentration of each component in the reaction mixture solution was: 100 μM ATP, 300 nM […], 300 μM NADH, 6 mM PEP, 10 U/mL lactate dehydrogenase and 20 U/mL pyruvate kinase. 20 μL/well of reaction mixture solution was added to start the enzyme reaction. […] The concentration range was from 10 μM to 0.0005 μM, and the final concentration of DMSO in the system was 0.2% v/v. The 384-well plate was reacted at room temperature for 20 minutes, and then the OD value at 340 nm was read with an Envision microplate reader. The inhibition rate was calculated, and XLfit software was used to perform fitting to obtain IC50 of the compounds. In the experiment, a blank group and a DMSO group were set up, respectively.

N-terminal active peptide segment (MI-N899) of POLQ with ATPase activity, sequence (O75417 1-899 limits assumed): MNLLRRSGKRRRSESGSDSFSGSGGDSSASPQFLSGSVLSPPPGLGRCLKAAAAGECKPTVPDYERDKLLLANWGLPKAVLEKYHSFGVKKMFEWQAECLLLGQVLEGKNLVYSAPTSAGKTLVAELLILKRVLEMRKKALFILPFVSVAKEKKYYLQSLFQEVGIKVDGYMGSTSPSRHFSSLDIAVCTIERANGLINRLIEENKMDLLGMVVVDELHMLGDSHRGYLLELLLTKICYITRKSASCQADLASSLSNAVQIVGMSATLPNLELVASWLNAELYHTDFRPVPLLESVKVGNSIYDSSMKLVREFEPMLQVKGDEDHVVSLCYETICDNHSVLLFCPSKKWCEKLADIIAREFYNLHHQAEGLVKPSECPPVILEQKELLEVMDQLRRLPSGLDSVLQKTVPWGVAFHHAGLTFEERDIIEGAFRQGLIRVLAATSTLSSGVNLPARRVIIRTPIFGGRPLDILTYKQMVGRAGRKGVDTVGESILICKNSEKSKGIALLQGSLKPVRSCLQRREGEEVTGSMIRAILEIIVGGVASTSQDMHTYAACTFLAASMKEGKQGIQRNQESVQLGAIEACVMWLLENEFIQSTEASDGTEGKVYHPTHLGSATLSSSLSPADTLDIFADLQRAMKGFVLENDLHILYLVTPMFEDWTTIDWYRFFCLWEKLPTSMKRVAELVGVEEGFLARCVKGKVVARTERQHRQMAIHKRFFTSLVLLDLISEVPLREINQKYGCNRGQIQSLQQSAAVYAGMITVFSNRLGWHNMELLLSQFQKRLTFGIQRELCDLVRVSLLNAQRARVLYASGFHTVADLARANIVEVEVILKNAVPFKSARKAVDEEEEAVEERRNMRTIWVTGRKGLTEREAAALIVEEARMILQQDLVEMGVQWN

Take `COc1ccccc1-c1cnccc1C(=O)Nc1nc2ncc(-c3ccc(C#N)cc3)nc2s1` [Compound 9, N-(6-(4-cyanophenyl)thiazolo[4,5-b]pyrazin-2-yl)-3-(2-methoxyphenyl)pyridine-4-carboxamide]: the IC50 was less than 200 nM in assay [1], greater than 10000 nM in assay [2] and less than 100 nM in assay [3].
In the same order, the values of `COc1ccccc1-c1ccncc1C(=O)Nc1nc2ncc(-c3ccc(C#N)cc3)nc2s1` [Compound 16, N-(6-(4-cyanophenyl)thiazolo[4,5-b]pyrazin-2-yl)-4-(2-methoxyphenyl)nicotinamide] are 200 to 500 nM, greater than 10000 nM and less than 100 nM.
In the same order, the values of `COc1cnc(Cl)cc1-c1cc(C)ncc1C(=O)Nc1nc2ncc(-c3ccc(C#N)cc3)nc2s1` [Compound 20, 2′-chloro-N-(6-(4-cyanophenyl)thiazolo[4,5-b]pyrazin-2-yl)-5′-methoxy-6-methyl-[4,4′-bipyridine]-3-carboxamide] are less than 200 nM, greater than 10000 nM and less than 100 nM.
For `C#Cc1cc(F)ccc1-c1cc(C)ncc1C(=O)Nc1nc2ncc(-c3ccc(C#N)cc3)nc2s1` [Compound 47, N-(6-(4-cyanophenyl)thiazolo[4,5-b]pyrazin-2-yl)-4-(2-ethynyl-4-fluorophenyl)-6-methylpyridine-3-carboxamide], the IC50 in assay [3] is less than 100 nM.
On the same count and under the same terms, the value for `C#Cc1cccc(F)c1-c1cc(C)ncc1C(=O)Nc1nc2ncc(-c3ccc(C#N)cc3)nc2s1` [Compound 49, N-(6-(4-cyanophenyl)thiazolo[4,5-b]pyrazin-2-yl)-4-(2-ethynyl-6-fluorophenyl)-6-methylpyridine-3-carboxamide] was less than 100 nM; that for `COc1ccccc1-c1ncccc1C(=O)Nc1nc2ncc(-c3ccc(C#N)cc3)nc2s1` [Compound 50, N-(6-(4-cyanophenyl)thiazolo[4,5-b]pyrazin-2-yl)-2-(2-methoxyphenyl)pyridine-3-carboxamide] was less than 100 nM.
Same read-out and setting: next, `COc1ccccc1-c1cncnc1C(=O)Nc1nc2ncc(-c3ccc(C#N)cc3)nc2s1` [Compound 52, N-(6-(4-cyanophenyl)thiazolo[4,5-b]pyrazin-2-yl)-5-(2-methoxyphenyl)pyrimidine-4-carboxamide]: less than 100 nM; `COc1ccccc1-c1cnc(C(F)(F)F)cc1C(=O)Nc1nc2ncc(-c3ccc(C#N)cc3)nc2s1` [Compound 53, N-(6-(4-cyanophenyl)thiazolo[4,5-b]pyrazin-2-yl)-5-(2-methoxyphenyl)-2-(trifluoromethyl)pyridine-4-carboxamide]: 100 to 500 nM.
Still for that read-out and setting: next, `COc1ccccc1-c1cncc(F)c1C(=O)Nc1nc2ncc(-c3ccc(C#N)cc3)nc2s1` [Compound 54, N-(6-(4-cyanophenyl)thiazolo[4,5-b]pyrazin-2-yl)-3-fluoro-5-(2-methoxyphenyl)pyridine-4-carboxamide]: less than 100 nM; `COc1ccccc1-c1ccccc1C(=O)Nc1nc2ncc(-c3ccc(C#N)cc3)nc2s1` [Compound 55, N-(6-(4-cyanophenyl)thiazolo[4,5-b]pyrazin-2-yl)-2′-methoxy-[1,1′-biphenyl]-2-carboxamide]: less than 100 nM.
In assay [3], `COc1ccccc1-c1cn2ncnc2cc1C(=O)Nc1nc2ncc(-c3ccc(C#N)cc3)nc2s1` [Compound 57, N-(6-(4-cyanophenyl)thiazolo[4,5-b]pyrazin-2-yl)-6-(2-methoxyphenyl)-[1,2,4]triazolo[1,5-a]pyridine-7-carboxamide] yielded an IC50 of less than 100 nM.
In assay [3], `C#Cc1ccccc1-c1nc(C)ncc1C(=O)Nc1nc2ncc(-c3ccc(C#N)cc3)nc2s1` [Compound 59, N-(6-(4-cyanophenyl)thiazolo[4,5-b]pyrazin-2-yl)-4-(2-ethynylphenyl)-2-methylpyrimidine-5-carboxamide] came in with an IC50 of less than 100 nM.
On the same count and under the same terms, the value for `C#Cc1ccccc1-c1cc(C)ncc1C(=O)Nc1nc2ncc(-c3ccc(C#N)cc3)cc2s1` [Compound 60, N-(6-(4-cyanophenyl)thiazolo[4,5-b]pyridin-2-yl)-4-(2-ethynylphenyl)-6-methylpyridine-3-carboxamide] was less than 100 nM; that for `C#Cc1cnc(C)cc1-c1cc(C)ncc1C(=O)Nc1nc2ncc(-c3ccc(C#N)cc3)nc2s1` [Compound 64, N-(6-(4-cyanophenyl)thiazolo[4,5-b]pyrazin-2-yl)-5′-ethynyl-2′,6-dimethyl-[4,4′-bipyridine]-3-carboxamide] was less than 100 nM; that for `COc1cnc(C#N)cc1-c1cc(C)ncc1C(=O)Nc1nc2ncc(-c3ccc(Cl)cn3)nc2s1` [Compound 65, N-(6-(5-chloropyridin-2-yl)thiazolo[4,5-b]pyrazin-2-yl)-2′-cyano-5′-methoxy-6-methyl-[4,4′-bipyridine]-3-carboxamide] was less than 100 nM.
On the same count and under the same terms, next, `COc1cnc(C)cc1-c1cc(C)ncc1C(=O)Nc1nc2ncc(-c3ccc(Cl)cn3)nc2s1` [Compound 66, N-(6-(5-chloropyridin-2-yl)thiazolo[4,5-b]pyrazin-2-yl)-5′-methoxy-2′,6-dimethyl-[4,4′-bipyridine]-3-carboxamide]: less than 100 nM; `COc1cnc(C)cc1-c1cc(C)ncc1C(=O)Nc1nc2ncc(-c3ccc(Cl)cc3)nc2s1` [Compound 67, N-(6-(4-chlorophenyl)thiazolo[4,5-b]pyrazin-2-yl)-5′-methoxy-2′,6-dimethyl-[4,4′-bipyridine]-3-carboxamide]: less than 100 nM.
Same read-out and setting: the value for `COc1cnc(C)cc1-c1cc(C)ncc1C(=O)Nc1nc2ncc(C3CCOC3)nc2s1` (stereo not drawn) [Compound 69-P1, N-(6-(tetrahydrofuran-3-yl)thiazolo[4,5-b]pyrazin-2-yl)-5′-methoxy-2′,6-dimethyl-[4,4′-bipyridine]-3-carboxamide] was less than 100 nM; that for `COc1cnc(C)cc1-c1cc(C)ncc1C(=O)Nc1nc2ncc(-c3ccc(C#N)cc3F)nc2s1` [Compound 70, N-(6-(4-cyano-2-fluorophenyl)thiazolo[4,5-b]pyrazin-2-yl)-5′-methoxy-2′,6-dimethyl-[4,4′-bipyridine]-3-carboxamide] was less than 100 nM.
Turning to `COc1ccc(Cl)cc1-c1cc(C)ncc1C(=O)Nc1nc2ncc(-c3ccc(Cl)cn3)nc2s1` [Compound 71, 4-(5-chloro-2-methoxyphenyl)-N-(6-(5-chloropyridin-2-yl)thiazolo[4,5-b]pyrazin-2-yl)-6-methylpyridine-3-carboxamide], the IC50 in assay [3] was less than 100 nM.
Still for that read-out and setting: next, `COc1cnc(C)c(F)c1-c1cc(C)ncc1C(=O)Nc1nc2ncc(-c3ccc(C#N)cc3)nc2s1` [Compound 76, N-(6-(4-cyanophenyl)thiazolo[4,5-b]pyrazin-2-yl)-3′-fluoro-5′-methoxy-2′,6-dimethyl-[4,4′-bipyridine]-3-carboxamide]: less than 100 nM.
Same read-out and setting: the value for `Cc1cc(-c2cc(Cl)ccc2C(F)(F)F)c(C(=O)Nc2nc3ncc(-c4ccc(C#N)cc4)nc3s2)cn1` [Compound 88, 4-(5-chloro-2-(trifluoromethyl)phenyl)-N-(6-(4-cyanophenyl)thiazolo[4,5-b]pyrazin-2-yl)-6-methylpyridine-3-carboxamide] was less than 100 nM; that for `Cc1cc(-c2cc(Cl)ccc2OC(F)F)c(C(=O)Nc2nc3ncc(-c4ccc(C#N)cc4)nc3s2)cn1` [Compound 89, 4-(5-chloro-2-(difluoromethoxy)phenyl)-N-(6-(4-cyanophenyl)thiazolo[4,5-b]pyrazin-2-yl)-6-methylpyridine-3-carboxamide] was less than 100 nM; that for `Cc1cc(-c2cc(Cl)ccc2OC(F)(F)F)c(C(=O)Nc2nc3ncc(-c4ccc(C#N)cc4)nc3s2)cn1` [Compound 90, 4-(5-chloro-2-(trifluoromethoxy)phenyl)-N-(6-(4-cyanophenyl)thiazolo[4,5-b]pyrazin-2-yl)-6-methylpyridine-3-carboxamide] was less than 100 nM.

The record behind these values is patent US20250122221A1 (NANJING ZAIMING PHARMACEUTICAL CO., LTD., priority 2022, published 2025).
